Like-named read-outs stand apart in the source and are kept apart here. Numbered stars: 1 amine (or outer) side, 2 acyl side, 3 side chain; on linkers, the order of the positions; unused ones are H or OH. Bridge positions count the residues as written; N and C are the ends. Square brackets hold non-standard residues; d marks the D form. Side chains are listed from the residue outwards. Peptide text beside a SMILES is read from it. * marks the point of attachment. X2 = O=C(O)CN1CCN(CC(=O)O)CCN([C@H](CCC(=O)*)C(=O)O)CCN(CC(=O)O)CC1; DOTA = O=C(O)CN1CCN(CC(=O)O)CCN(CC(=O)*)CCN(CC(=O)O)CC1; Phe(3-Cl) = N[C@@H](Cc1cccc(Cl)c1)C(=O)O; Phe(4-Cl) = N[C@@H](Cc1ccc(Cl)cc1)C(=O)O; Arg(Me) = CNC(=N)NCCC[C@H](N)C(=O)O; Ethylenediamine = C(CN[*:2])N[*:1]; X1 = O=C(CC1CCN([*:1])CC1)[*:2]; Aad = N[C@@H](CCCC(=O)O)C(=O)O; Lys(Me) = CNCCCC[C@H](N)C(=O)O; Tle = CC(C)(C)[C@H](N)C(=O)O; Propanoyl(3-OH) = O=C(CCO)*; AEEA = NCCOCCOCC(=O)O; Aib = CC(C)(N)C(=O)O; βAla = NCCC(=O)O
Experiments:
[1] = target: T1, Fc-fusion protein of human PSMA (hPSMA-Fc) (Homo sapiens, UniProt Q04609); assay: Surface plasmon resonance assay (Biacore T200, single cycle kinetic); type: binding; conditions: hPSMA-Fc, 25° C., read-out: pKD CAT (converted)
T1 construct: purchased Acro Biosystems PSA-H5264
T1 sequence (Q04609 44-750 limits assumed): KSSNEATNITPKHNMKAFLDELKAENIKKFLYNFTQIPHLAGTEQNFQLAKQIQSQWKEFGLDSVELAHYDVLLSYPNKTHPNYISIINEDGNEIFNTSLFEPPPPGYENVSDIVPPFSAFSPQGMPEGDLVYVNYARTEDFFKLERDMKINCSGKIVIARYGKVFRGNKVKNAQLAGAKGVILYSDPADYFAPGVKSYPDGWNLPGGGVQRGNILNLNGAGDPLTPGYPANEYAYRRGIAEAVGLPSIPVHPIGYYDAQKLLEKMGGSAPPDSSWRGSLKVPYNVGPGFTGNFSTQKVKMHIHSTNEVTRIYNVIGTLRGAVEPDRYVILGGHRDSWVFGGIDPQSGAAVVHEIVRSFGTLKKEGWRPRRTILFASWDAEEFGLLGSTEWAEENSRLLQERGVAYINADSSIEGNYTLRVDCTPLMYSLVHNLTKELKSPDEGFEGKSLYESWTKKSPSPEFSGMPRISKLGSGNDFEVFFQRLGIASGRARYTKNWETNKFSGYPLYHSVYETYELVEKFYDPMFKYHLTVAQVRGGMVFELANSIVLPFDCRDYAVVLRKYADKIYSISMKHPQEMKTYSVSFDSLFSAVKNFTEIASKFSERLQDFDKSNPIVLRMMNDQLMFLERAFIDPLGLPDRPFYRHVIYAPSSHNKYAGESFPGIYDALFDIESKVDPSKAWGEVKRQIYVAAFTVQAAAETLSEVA
Method in brief: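 hPSMA-Fc was captured (~1000 RU) on an Fc-binding-peptide CM5 chip, and compounds were run in single cycle kinetic mode at 25° C in HBST with 0.1% DMSO. Double-blank-corrected sensorgrams were fitted to a 1:1 Langmuir model to give KD, reported as pKD.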

PC3-PIP tumor model = tested on: PC3-PIP tumor model; parameters: species or system mice; conditions: mouse, in vivo
Description: Radioactively labeled compounds can be detected by imaging methods such as SPECT and PET. Furthermore, the data acquired by such techniques can be confirmed by direct measurement of radioactivity contained in the individual organs prepared from an animal injected with a radioactively labeled compound of the disclosure. Thus, the biodistribution (the measurement of radioactivity in individual organs) of a radioactively labeled compound can be determined and analyzed. […] All animal experiments were conducted in compliance with the German animal protection laws. Male swiss or NMRI nude mice (6-8 weeks old, Janvier Labs, France) were inoculated with 5×10^6 PC3-PIP cells in the right shoulder. For selected compounds an additional model was used, here male NMRI nude mice (6-8 weeks old, Janvier Labs, France) were inoculated with 5×10^6 or/1×10^7 C4-2 cells in the right shoulder. When tumors reached an appropriate size, the mice received ˜30 MBq ^111In-labeled compounds of the disclosure (diluted to 100 μL with PBS) administered intravenously via the tail vein. Images were obtained on a NanoSPECT/computed tomography system (Mediso Medical Imaging Systems, Budapest, Hungary) using exemplarily the following acquisition and reconstruction parameters (Table 10). [table] Imaging data were saved as DICOM files and analysed using VivoQuant™ software (Invicro, Boston, USA). In brief, regions of interest (ROIs) were drawn based on computed tomography images for the relevant organs and tissue regions such as heart (estimate of blood pool, bps), kidney, and tumor. The resulting numeric data expressed as a percentage of injected dose per gram of tissue (% ID/g) are presented in FIGS. 3(a)-3(ii) for the PC3-PIP model and FIGS. 4(a)-4(r) for the C4-2 model. Bars show mean % ID/g values of two to three animals per time point. Error bars indicate the value range (minimum and maximum values).

[2] = target: T2, PSMA-expressing C4-2 cells (Homo sapiens, UniProt Q04609); assay: FACS binding assay (competition with 50 nM PSM-0183); conditions: read-out: pIC50 [C4-2] CAT (converted)
T2 construct: PSMA-expressing C4-2 cells (ATCC, Cat. No. CRL-3314) were cultured in RPMI-1640; host or cells: C4-2 cells
T2 sequence (Q04609 whole entry): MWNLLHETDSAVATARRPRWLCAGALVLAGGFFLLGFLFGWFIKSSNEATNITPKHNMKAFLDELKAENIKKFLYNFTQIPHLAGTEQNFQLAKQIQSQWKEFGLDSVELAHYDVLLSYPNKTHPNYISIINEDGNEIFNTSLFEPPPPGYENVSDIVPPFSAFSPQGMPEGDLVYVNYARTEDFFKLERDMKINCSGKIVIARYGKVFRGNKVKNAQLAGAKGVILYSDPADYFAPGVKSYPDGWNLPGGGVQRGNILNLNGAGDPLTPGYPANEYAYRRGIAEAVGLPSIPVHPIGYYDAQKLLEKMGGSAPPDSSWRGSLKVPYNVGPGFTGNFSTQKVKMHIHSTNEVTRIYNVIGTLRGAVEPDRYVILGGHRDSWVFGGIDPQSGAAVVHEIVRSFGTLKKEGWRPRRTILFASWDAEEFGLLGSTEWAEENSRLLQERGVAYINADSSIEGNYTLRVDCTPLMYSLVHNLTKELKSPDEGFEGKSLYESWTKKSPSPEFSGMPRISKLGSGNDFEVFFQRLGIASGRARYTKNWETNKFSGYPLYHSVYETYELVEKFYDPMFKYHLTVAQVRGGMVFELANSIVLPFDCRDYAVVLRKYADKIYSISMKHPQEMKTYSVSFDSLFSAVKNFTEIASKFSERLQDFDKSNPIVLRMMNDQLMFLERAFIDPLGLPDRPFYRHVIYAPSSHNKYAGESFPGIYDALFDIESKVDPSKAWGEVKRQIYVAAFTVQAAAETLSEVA
Method in brief: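 C4-2 cells were incubated 1 h at 4 °C with 50 nM AF488-labelled peptide PSM-0183 plus increasing test compound concentrations, then washed twice in ice-cold buffer. Median fluorescence in the AF488 channel was read by flow cytometry. IC50/pIC50 was derived by 4PL fitting of MFI versus concentration.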

[3] = pKD category for PSMA SPR activity assay
[4] = pIC50 category of FACS binding, C4-2 cells
[5] = FACS binding, PSMA-expressing C4-2 cells, pIC50 category
[6] = SPR, single cycle kinetic, category
[7] = FACS binding, C4-2 cells, competition with 50 nM PSM-0183, category

Compound | Kd [1, 3] [nM] | AUC ratio [T/K] (PC3-PIP tumor model) | Tumor AUC (PC3-PIP tumor model) [% ID/g*h] | IC50 [2, 4] [nM] | Kd ([1]; PSMA SPR assay, pKD category) [nM] | IC50 [2, 5] [nM] | Kd [1, 6] [nM] | IC50 [2, 7] [nM]
C[C@@H](O)[C@H](NC(=O)CC1CCN(C(=O)CN2CCN(CC(=O)O)CCN(CC(=O)O)CCN(CC(=O)O)CC2)CC1)C(=O)NC(C)(C)C(=O)N[C@@H](Cc1ccc(Cl)cc1)C(=O)N[C@H]1CSSC[C@@H](C(=O)N[C@H](C(N)=O)C(C)(C)C)NC(=O)[C@H](CC(N)=O)NC(=O)C(C)(C)NC(=O)[C@H](CCCNC(=N)N)NC(=O)[C@H](CCCCN)NC1=O [PSM-0433, DOTA-Cmp-Thr-Aib-Pcf-[Cys-Lys-Arg-Aib-Asn-Cys]-Tle-NH2] ({DOTA}-[X1]T[Aib][Phe(4-Cl)]CKR[Aib]NC[Tle]-NH2; disulfide 5-10) | < 12.6 | 1.7 | 270 | < 200 | – | – | – | –
CNCCCC[C@@H]1NC(=O)[C@@H](NC(=O)[C@H](Cc2ccc(Cl)cc2)NC(=O)C(C)(C)NC(C)=O)CSSC[C@@H](C(=O)N[C@H](C(=O)NCCNC(=O)CN2CCN(CC(=O)O)CCN(CC(=O)O)CCN(CC(=O)O)CC2)C(C)(C)C)NC(=O)[C@H](CC(N)=O)NC(=O)C(C)(C)NC(=O)[C@H](CCCNC(=N)NC)NC1=O [PSM-0481, Ac-Aib-Pcf-[Cys-Lys(Me)-Arg(Me)-Aib-Asn-Cys]-Tle-en-DOTA] (Ac-[Aib][Phe(4-Cl)]C[Lys(Me)][Arg(Me)][Aib]NC[Tle]-{Ethylenediamine-DOTA}; disulfide 3-8) | < 12.6 | 2.6 | 130 | < 200 | – | – | – | –
CC(=O)N[C@H](C(=O)NC(C)(C)C(=O)N[C@@H](Cc1cccc(Cl)c1)C(=O)N[C@H]1CSSC[C@@H](C(=O)N[C@H](C(=O)N[C@H](C(N)=O)[C@@H](C)O)C(C)(C)C)NC(=O)[C@H](CC(N)=O)NC(=O)[C@H](CCCCNC(=O)COCCOCCNC(=O)CC[C@H](C(=O)O)N2CCN(CC(=O)O)CCN(CC(=O)O)CCN(CC(=O)O)CC2)NC(=O)[C@H](CCCNC(=N)N)NC(=O)[C@H](CCCCN)NC1=O)[C@@H](C)O [PSM-0301, Ac-Thr-Aib-Mcf-[Cys-Lys-Arg-Lys (DOTAGA-020c)-Asn-Cys]-Tle-Thr-NH2] (Ac-T[Aib][Phe(3-Cl)]CKRK([AEEA-X2])NC[Tle]T-NH2; disulfide 4-9) | – | 0.45 | 83 | – | < 12.6 | < 200 | – | –
C[C@@H](O)[C@H](NC(=O)[C@@H](NC(=O)[C@@H]1CSSC[C@H](NC(=O)[C@H](Cc2ccccc2)NC(=O)C(C)(C)NC(=O)[C@@H](NC(=O)CC2CCN(C(=O)CC[C@H](C(=O)O)N3CCN(CC(=O)O)CCN(CC(=O)O)CCN(CC(=O)O)CC3)CC2)[C@@H](C)O)C(=O)N[C@@H](CCCCN)C(=O)N[C@@H](CCCNC(=N)N)C(=O)NC(C)(C)C(=O)N[C@@H](CC(N)=O)C(=O)N1)C(C)(C)C)C(N)=O [PSM-0218, DOTAGA-Cmp-Thr-Aib-Phe-[Cys-Lys-Arg-Aib-Asn-Cys]-Tle-Thr-NH2] (X2-[X1]T[Aib]FCKR[Aib]NC[Tle]T-NH2; disulfide 5-10) | – | 1.2 | 150 | – | – | – | < 12.6 | < 200
C[C@@H](O)[C@H](NC(=O)[C@@H](NC(=O)[C@@H]1CSSC[C@H](NC(=O)[C@H](Cc2ccccc2)NC(=O)C(C)(C)NC(=O)[C@@H](NC(=O)CC2CCN(C(=O)CN3CCN(CC(=O)O)CCN(CC(=O)O)CCN(CC(=O)O)CC3)CC2)[C@@H](C)O)C(=O)N[C@@H](CCCCN)C(=O)N[C@@H](CCCNC(=N)N)C(=O)NC(C)(C)C(=O)N[C@@H](CC(N)=O)C(=O)N1)C(C)(C)C)C(N)=O [PSM-0492, DOTA-Cmp-Thr-Aib-Phe-[Cys-Lys-Arg-Aib-Asn-Cys]-Tle-Thr-NH2] ({DOTA}-[X1]T[Aib]FCKR[Aib]NC[Tle]T-NH2; disulfide 5-10) | < 12.6 | 2.1 | 180 | < 200 | – | – | – | –
C[C@@H](O)[C@H](NC(=O)CC1CCN(C(=O)CN2CCN(CC(=O)O)CCN(CC(=O)O)CCN(CC(=O)O)CC2)CC1)C(=O)NC(C)(C)C(=O)N[C@@H](Cc1ccc(Cl)cc1)C(=O)N[C@H]1CSSC[C@@H](C(=O)N[C@H](C(=O)NCCC(N)=O)C(C)(C)C)NC(=O)[C@H](CC(N)=O)NC(=O)C(C)(C)NC(=O)[C@H](CCCNC(=N)N)NC(=O)[C@H](CCCCN)NC1=O [PSM-0467, DOTA-Cmp-Thr-Aib-Pcf-[Cys-Lys-Arg-Aib-Asn-Cys]-Tle-Bal-NH2] ({DOTA}-[X1]T[Aib][Phe(4-Cl)]CKR[Aib]NC[Tle][βAla]-NH2; disulfide 5-10) | < 12.6 | 1.3 | 280 | < 200 | – | – | – | –
C[C@@H](O)[C@H](NC(=O)CC1CCN(C(=O)CN2CCN(CC(=O)O)CCN(CC(=O)O)CCN(CC(=O)O)CC2)CC1)C(=O)NC(C)(C)C(=O)N[C@@H](Cc1ccccc1)C(=O)N[C@H]1CSSC[C@@H](C(=O)N[C@H](C(=O)NCCN)C(C)(C)C)NC(=O)[C@H](CC(N)=O)NC(=O)C(C)(C)NC(=O)[C@H](CCCNC(=N)N)NC(=O)[C@H](CCCCN)NC1=O [PSM-0241, DOTA-Cmp-Thr-Aib-Phe-[Cys-Lys-Arg-Aib-Asn-Cys]-Tle-en] ({DOTA}-[X1]T[Aib]FCKR[Aib]NC[Tle]-Ethylenediamine; disulfide 5-10) | – | 0.54 | 300 | – | – | – | < 12.6 | < 200
CC(=O)N[C@H](C(=O)NC(C)(C)C(=O)N[C@@H](Cc1ccccc1)C(=O)N[C@H]1CSSC[C@@H](C(=O)N[C@H](C(=O)N[C@H](C(=O)N2CCC(CC(=O)N[C@H](CCCCNC(=O)CC[C@H](C(=O)O)N3CCN(CC(=O)O)CCN(CC(=O)O)CCN(CC(=O)O)CC3)C(N)=O)CC2)[C@@H](C)O)C(C)(C)C)NC(=O)[C@H](CC(N)=O)NC(=O)C(C)(C)NC(=O)[C@H](CCCNC(=N)N)NC(=O)[C@H](CCCCN)NC1=O)[C@@H](C)O [PSM-0339, Ac-Thr-Aib-Phe-[Cys-Lys-Arg-Aib-Asn-Cys]-Tle-Thr-Cmp-lys (DOTAGA)-NH2] (Ac-T[Aib]FCKR[Aib]NC[Tle]T[X1][dK](X2)-NH2; disulfide 4-9) | – | 1.2 | 160 | – | < 12.6 | < 200 | – | –
C[C@@H](O)[C@H](NC(=O)[C@@H](NC(=O)[C@@H]1CSSC[C@H](NC(=O)[C@H](Cc2ccc(Cl)cc2)NC(=O)C(C)(C)NC(=O)CCO)C(=O)N[C@@H](CCCCN)C(=O)N[C@@H](CCCNC(=N)N)C(=O)NC(C)(C)C(=O)N[C@@H](CC(N)=O)C(=O)N1)C(C)(C)C)C(=O)N[C@H](CCCCNC(=O)CN1CCN(CC(=O)O)CCN(CC(=O)O)CCN(CC(=O)O)CC1)C(N)=O [PSM-0267, HPA-Aib-Pcf-[Cys-Lys-Arg-Aib-Asn-Cys]-Tle-Thr-lys(DOTA)-NH2] ({Propanoyl(3-OH)}-[Aib][Phe(4-Cl)]CKR[Aib]NC[Tle]T[dK](DOTA)-NH2; disulfide 3-8) | – | 1.2 | 170 | – | – | – | < 12.6 | < 200
C[C@@H](O)[C@H](NC(=O)[C@@H](NC(=O)[C@@H]1CSSC[C@H](NC(=O)[C@H](Cc2ccc(Cl)cc2)NC(=O)C(C)(C)NC(=O)[C@@H](NC(=O)CC2CCN(C(=O)CN3CCN(CC(=O)O)CCN(CC(=O)O)CCN(CC(=O)O)CC3)CC2)[C@@H](C)O)C(=O)N[C@@H](CCCCN)C(=O)N[C@@H](CCCC(N)=O)C(=O)NC(C)(C)C(=O)N[C@@H](CC(N)=O)C(=O)N1)C(C)(C)C)C(N)=O [PSM-0531, DOTA-Cmp-Thr-Aib-Pcf-[Cys-Lys-Hgn-Aib-Asn-Cys]-Tle-Thr-NH2] ({DOTA}-[X1]T[Aib][Phe(4-Cl)]CK[Aad](NH2)[Aib]NC[Tle]T-NH2; disulfide 5-10) | < 12.6 | 1.6 | 120 | < 200 | – | – | – | –
